Values after ≈ are worked out from the molar mass of the structure shown.
Assays:
[1] = pH 11
[2] = alcohols, acetone, ethyl acetate, toluene, diethyl ether, dioxane, hexane and n-heptane
[3] = low levels of volatiles by KF and TGA

- solubility in water [1]: 5500 µg/mL (≈ 32.1 mM)
- solubility in organic solvents [2]: freely soluble
- hygroscopicity [3]: not hygroscopic
SMILES: C#CCN[C@@H]1CCc2ccccc21 [rasagiline base, R(+)-N-propargyl-1-aminoindan]
